One may read the pEC50 as −log10 of the EC50, conventionally taken in molar units. Higher therefore signals a small EC50.

SMILES strings stand for the structures. pEC50: −log10 of the molar value. Where a name gives a salt, the structure may show the parent alone.

For this experiment, the target named is Glycogen synthase kinase-3 beta (Homo sapiens, UniProt P49841). The experiment in a line: GSK3beta kinase inhibitor potency, dose response, biochemical, luminescence, cell-free homogeneous, retest (AID 434954).
Glycogen synthase kinase-3 beta, sequence (P49841 whole entry): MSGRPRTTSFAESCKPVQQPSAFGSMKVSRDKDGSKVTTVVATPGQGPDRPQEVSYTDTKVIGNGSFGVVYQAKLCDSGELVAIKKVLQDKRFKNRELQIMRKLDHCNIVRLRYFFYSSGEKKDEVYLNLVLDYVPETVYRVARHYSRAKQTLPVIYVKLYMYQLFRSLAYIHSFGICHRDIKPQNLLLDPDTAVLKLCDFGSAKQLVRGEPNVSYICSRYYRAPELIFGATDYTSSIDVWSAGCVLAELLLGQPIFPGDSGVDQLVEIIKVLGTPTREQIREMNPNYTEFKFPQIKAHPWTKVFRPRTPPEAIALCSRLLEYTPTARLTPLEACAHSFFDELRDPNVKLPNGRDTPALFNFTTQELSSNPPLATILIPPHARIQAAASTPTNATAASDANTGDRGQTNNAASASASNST
`O=C(CCSc1nnc(-c2ccncc2)o1)Nc1ccc(F)cc1` [N-(4-fluorophenyl)-3-[(5-pyridin-4-yl-1,3,4-oxadiazol-2-yl)thio]propanamide]: the pEC50 was < 3.52.
Then `O=C(CCc1ccccc1)Nc1ccc2c(c1)OCCO2` [N-(2,3-dihydro-1,4-benzodioxin-6-yl)-3-phenyl-propanamide], with < 3.52.
In the case of `CC(C)N(Cc1nnc(-c2ccc(Cl)cc2)o1)C(=O)C1=COCCO1`, the pEC50 is < 3.52.
Compound `COc1ccc(/C=C2\Sc3ccc(C(=O)NCCN4CCCCCC4)cc3N(C)C2=O)cc1` [(2Z)-N-[2-(azepan-1-yl)ethyl]-2-[(4-methoxyphenyl)methylidene]-4-methyl-3-oxo-1,4-benzothiazine-6-carboxamide] gave a pEC50 of 4.36.
The same measure for `Cc1ccc(NC(=O)C2CCN(S(=O)(=O)c3ccc4c(c3)NC(=O)C(C)S4)CC2)c(Cl)c1` (centres undefined) [SMR000630224]: < 3.52; for `COc1ccc(OC)c(C=NNC(=O)CCc2c(C)n[nH]c2C)c1` [MLS000769019]: < 3.52.
`COc1ccc(-c2nn(-c3ccccc3)cc2C(=O)O)cc1` [SMR000015534]: the pEC50 was < 3.52.
Consider `CCNC(=O)NC(=O)CSc1nc2ccccc2n1CCOC` [SMR000154706], for which the pEC50 is < 3.52.
`Nc1nc(NCCO)nc(NCc2ccccc2)c1[N+](=O)[O-]` [2-[[4-amino-6-(benzylamino)-5-nitropyrimidin-2-yl]amino]ethanol] gave a pEC50 of 4.69.
With `Cc1ccccc1C1=NC(C(F)(F)F)(C(F)(F)F)c2c(n(C)c(=O)n(C)c2=O)N1` [1,3-dimethyl-7-(2-methylphenyl)-5,5-bis(trifluoromethyl)-8H-pyrimido[4,5-d]pyrimidine-2,4-dione], the negative logarithm of the EC50 (pEC50) was < 3.52.
Then `CC1CCCCC1NS(=O)(=O)c1ccc2c(c1)CC(=O)N2C` (centres undefined), with < 3.52; and `O=C(NC(=O)c1ccccc1)Nc1ccccn1` [N-(pyridin-2-ylcarbamoyl)benzamide], with 4.29; and `Cc1ccc(-c2cc(C(=O)NCCc3ccccn3)c3ccccc3n2)c(C)c1` [SMR000264677], with < 3.52.
Consider `Cc1ccc(NC2=CC(=O)CC(C)(C)C2)cc1C` [3-(3,4-dimethylanilino)-5,5-dimethyl-1-cyclohex-2-enone], for which the pEC50 is < 3.52.
Consider `O=C1N=C(Nc2ccccc2Cl)SC1=Cc1ccc(C(=O)O)cc1` [MLS001203362], for which the negative logarithm of the EC50 (pEC50) was < 3.52.
For `Cc1cc(NC(=O)c2noc3c2CCc2ccccc2-3)n(-c2ccccc2)n1` [MLS000116423], the pEC50 was < 3.52.
Then `Cc1c(C(=O)O)sc2c1c(=O)n(Cc1ccccc1)c(=O)n2C` [1,5-dimethyl-2,4-dioxo-3-(phenylmethyl)-6-thieno[2,3-d]pyrimidinecarboxylic acid], with < 3.52.
On to `Cc1ncc(CN2CCCC(C(=O)Nc3ccc(-c4cccc(F)c4)cc3)C2)cn1` (centres undefined) [N-[4-(3-fluorophenyl)phenyl]-1-[(2-methylpyrimidin-5-yl)methyl]piperidine-3-carboxamide], for which the negative logarithm of the EC50 (pEC50) is < 3.52.
`O=C(Nc1ccccc1)Nc1cnccn1` [MLS001229949]: the pEC50 was < 3.52.
The same measure for `CN(C(=O)CSc1nnc(-c2c[nH]c3ccccc23)o1)C1CCS(=O)(=O)C1` (centres undefined) [N-(1,1-dioxothiolan-3-yl)-2-[[(2Z)-2-indol-3-ylidene-3H-1,3,4-oxadiazol-5-yl]sulfanyl]-N-methylacetamide]: < 3.52.
Take `CCN(CCNC(=O)CN(C)S(=O)(=O)c1cccc2nsnc12)c1ccccc1`: the pEC50 was < 3.52.
On to `Cc1c(C(=O)NN=Cc2ccccn2)nnn1-c1nonc1N` [1-(4-amino-1,2,5-oxadiazol-3-yl)-5-methyl-N-(pyridin-2-ylmethylideneamino)triazole-4-carboxamide], for which the negative logarithm of the EC50 (pEC50) was < 3.52.
As for `CCCNC(=O)c1ccc(Cl)cc1Cl` [SMR000528064], the pEC50 is < 3.52.
On to `Cc1ccc2nc3c(cc2c1)c(NC(=O)c1ccccn1)nn3CC(C)C`, for which the pEC50 is < 3.52.
For `O=C(Nc1ccccc1Cl)N1CCSc2ccccc21` [N-(2-chlorophenyl)-2,3-dihydro-4H-1,4-benzothiazine-4-carboxamide], the pEC50 was < 3.52.
For the compound `CCc1c(C)c2ccc(O)c(CN(C)C)c2oc1=O` [8-[(dimethylamino)methyl]-3-ethyl-4-methyl-7-oxidanyl-chromen-2-one], the pEC50 is < 3.52.
For the compound `O=C(/[O+]=N/[CH-]c1ccc(N2CCCCC2)c([N+](=O)[O-])c1)c1ccc(Cl)cc1Cl` [MLS000326612], the pEC50 is < 3.52.
Consider `O=C(COc1ccccc1Cl)Nc1ccc2c(c1)OCCO2` [2-(2-chloranylphenoxy)-N-(2,3-dihydro-1,4-benzodioxin-6-yl)ethanamide], for which the pEC50 is < 3.52.
`Cc1ccc(S(=O)(=O)CCSc2n[nH]c(=O)n2-c2ccc3c(c2)OCCO3)cc1` [SMR000456166]: the pEC50 is 4.13.
`COc1ccc2nc(NC(=O)C3CCCO3)sc2c1` (centres undefined) [N-(6-methoxy-1,3-benzothiazol-2-yl)-2-oxolanecarboxamide]: the pEC50 was < 3.52.
On to `CCOc1ccccc1Nc1cc(C)nc2ccc(C)cc12` [SMR000473096], for which the pEC50 is < 3.52.
As to `Nc1nc(NCC2CCCO2)nc(Nc2ccccc2F)c1[N+](=O)[O-]` (centres undefined) [MLS000769541], the negative logarithm of the EC50 (pEC50) is 5.63.
Then `COCCn1c(SCC(=O)NC(=O)NCc2ccccc2)nc2ccccc21` [MLS000053169], with < 3.52; and `O=C(NN=Cc1ccccn1)c1cccnc1` [Nicotinic acid [1-pyridin-2-yl-meth-(E)-ylidene]-hydrazide], with < 3.52.
For the compound `CCSc1nc2sc3c(c2c(=O)n1-c1ccccc1)CCN(C)C3` [2-Ethylsulfanyl-7-methyl-3-phenyl-5,6,7,8-tetrahydro-3H-9-thia-1,3,7-triaza-fluoren-4-one], the negative logarithm of the EC50 (pEC50) was < 3.52.
For the compound `CCn1cc(CN2CCC(n3nccc3NC(=O)CCCc3ccccc3)CC2)cn1` [N-[2-[1-[(1-ethylpyrazol-4-yl)methyl]piperidin-4-yl]pyrazol-3-yl]-4-phenyl-butanamide], the negative-log EC50 (pEC50) is < 3.52.
On to `O=C(Nc1cccc(NC(=O)c2ccc3c(c2)OCO3)c1)c1ccccc1` [MLS000706176], for which the pEC50 was < 3.52.
With `CC1Cc2cc(S(=O)(=O)N3CCN(c4ccccc4)CC3)ccc2N1C(=O)C1CC1` (centres undefined), the negative logarithm of the EC50 (pEC50) was < 3.52.
Consider `Nc1nc(NCC2CCCO2)nc(Nc2cccc(Cl)c2)c1[N+](=O)[O-]` (centres undefined) [SMR000434547], for which the negative-log EC50 (pEC50) is < 3.52.
For the compound `CCOC(=O)c1[nH]c(C)c(C(=O)NCc2ccc(OC)cc2)c1C`, the negative-log EC50 (pEC50) is < 3.52.
The compound `O=C(c1ccc(Br)cc1)c1coc2ccc(O)cc12` [MLS001178337] had a pEC50 of 4.81.
`Cc1c(CN(C)C)c2c(n1C)C(=O)c1ccc(Br)cc1-2` [7-bromo-1-[(dimethylamino)methyl]-2,3-dimethyl-4-indeno[2,3-b]pyrrolone;hydrochloride] gave a negative-log EC50 (pEC50) of 4.75.
`O=[N+]([O-])c1ccccc1S(=O)(=O)N1CCc2ccccc2C1` [SMR000273931]: the negative-log EC50 (pEC50) is < 3.52.
`C=CCNc1nc(N)c([N+](=O)[O-])c(NC2CCCCC2)n1` [4-N-cyclohexyl-5-nitro-2-N-prop-2-enylpyrimidine-2,4,6-triamine] had a pEC50 of 5.26.
`COc1ccc(-c2csc(N(CC3CCCO3)C(=O)c3ccccc3)n2)cc1` (centres undefined): the pEC50 is < 3.52.
In the case of `O=C1CCCc2oc3ccc(O)cc3c21` [SMR000125008], the pEC50 was < 3.52.
In the case of `Cc1sc2ncnc(N3CCCCC3C)c2c1C` (centres undefined), the pEC50 is < 3.52.
Regarding `CCCn1nc(NC(=O)C2CCCO2)c2cc3cc(C)ccc3nc21` (centres undefined) [SMR000148635], the negative-log EC50 (pEC50) is < 3.52.
Take `O=C(c1ccncc1)N1CCN(C(=O)c2ccco2)CC1` [MLS000066790]: the pEC50 was < 3.52.
For `COc1ccc2c(c1)=C(NN1C(=O)c3ccccc3C1=O)C(=O)N=2` [2-[(5-methoxy-2-oxidanylidene-indol-3-yl)amino]isoindole-1,3-dione], the negative logarithm of the EC50 (pEC50) is < 3.52.
The same measure for `CC(=O)Oc1cccc(N2C(=O)c3ccc(C(=O)Nc4cccnc4)cc3C2=O)c1` [SMR000306801]: < 3.52; for `COc1ccc(-n2c(Cc3cccn3C)nnc2SCC(=O)NCC2CCCO2)cc1` (centres undefined) [2-[[4-(4-methoxyphenyl)-5-[(1-methylpyrrol-2-yl)methyl]-1,2,4-triazol-3-yl]sulfanyl]-N-(oxolan-2-ylmethyl)acetamide]: < 3.52; for `COCCOc1ccc(C(F)(F)F)cc1NC(=O)COC(=O)c1cc[n+]([O-])cc1` [[2-[2-(2-methoxyethoxy)-5-(trifluoromethyl)anilino]-2-oxoethyl] 1-oxidopyridin-1-ium-4-carboxylate]: < 3.52.
In the case of `FC(F)(F)c1ccc(CSc2nccn2-c2ccccc2)cc1`, the pEC50 was < 3.52.
For `COC(=O)c1nnn(-c2nonc2N)c1CSc1nc2ccccc2s1` [methyl 1-(4-amino-1,2,5-oxadiazol-3-yl)-5-(1,3-benzothiazol-2-ylsulfanylmethyl)triazole-4-carboxylate], the pEC50 was < 3.52.
As for `O=[N+]([O-])c1ccc(N2CCCCCC2)c([N+](=O)[O-])c1` [1-(2,4-Dinitro-phenyl)-azepane], the negative logarithm of the EC50 (pEC50) is < 3.52.
On to `O=C(COc1ccccc1[N+](=O)[O-])N/N=C/c1ccc[nH]1` [(2-Nitro-phenoxy)-acetic acid [1-(1H-pyrrol-2-yl)-meth-(E)-ylidene]-hydrazide], for which the negative logarithm of the EC50 (pEC50) was < 3.52.
For the compound `CCCCC(=O)Nc1ncc(S(=O)(=O)c2ccc([N+](=O)[O-])cc2)s1` [N-[5-(4-nitrophenyl)sulfonyl-2-thiazolyl]pentanamide], the negative-log EC50 (pEC50) is < 3.52.
`Fc1ccc(Nc2nc(-c3ccncc3)nc3ccccc23)cc1` [(4-Fluoro-phenyl)-(2-pyridin-4-yl-quinazolin-4-yl)-amine]: the pEC50 is < 3.52.
On to `O=C1C(=O)N(c2ccccn2)C(c2ccc(Br)cc2)C1C(=O)c1ccc(Br)cc1` (centres undefined), for which the negative-log EC50 (pEC50) is < 3.52.
Then `COc1ccc(OC)c(Nc2nc(N(C)c3ccccc3)nc(N)c2[N+](=O)[O-])c1` [MLS001215240], with < 3.52.
Then `CCc1ccc(C2CC(c3ccc(C)cc3)Nc3nc(N)nn32)cc1` (centres undefined), with < 3.52; and `CN1CCN(C(=O)CCS(=O)(=O)c2cc3c(cc2Cl)NC(=O)CO3)CC1` [SMR000627499], with < 3.52; and `COc1cc(C2c3c(n(Cc4ccccc4)c(=O)[nH]c3=O)N=C3CC(C)(C)CC(=O)C32)ccc1O` (centres undefined), with < 3.52.

Source of the values: BindingDB's records for doi:10.7270/Q2TX3CTT (Broad Institute, 2010).
